Laboratory results taken from publication PMC12320299 (Chemical Science, 2025).

Key:
SW480 = test system: SW480; parameters: method as in earlier work; settings: 96 h incubation; ref 48 (ESI Ref. 1); cited from earlier work
CH1/PA-1 = test system: CH1/PA-1; parameters: method as in Ref. 1 (ESI); settings: 96 h incubation; ref Ref. 1 (ESI); cited from earlier work
TP53 = test: Immunofluorescence staining of TP53; assay type: cell-based, human; settings: SW480, 24 h; 1a 1 μM; etoposide 100 nM
Description: Cell Signaling Technology (Danvers, MA, USA), respectively. Horseradish-peroxidase-linked secondary antibodies, anti-mouse IgG (Fc specific) antibody (#7076S) and anti-rabbit IgG antibody (#7074S) were purchased from Cell Signaling Technology (Danvers, MA, USA). Anti-ß-actin (AC-15) (A5441, 1:2000) was obtained from Sigma-Aldrich (St. Louis, MO, USA).
SW480 and CT26 cells were grown at a density of 6.7x10^4 cells/mL on 8-well glass coverslips (80841, ibidi GmbH, Gräfelfing, Germany) in 300 µL complete media. The next day, cells were treated with respective compounds for 24 h. Cells were fixed with 4%(v/v) paraformaldehyde for 15 min at RT, followed by washing, blocking and permeabilization with 5%(w/v) BSA and […]
(1 : 500) were diluted in 1% BSA-0.3% Triton-X-100 in PBS and incubated overnight at 4 °C.
One well was incubated without primary antibody as background control. Cells were washed and stained with secondary goat anti-mouse AlexaFlour-488 (1 : 500 dilution, A-11029, Thermo Fisher Scientific) or goat anti-rabbit AlexaFlour-488 (1 : 500 dilution, A-11034, Thermo Fisher Scientific) antibodies for 1 h at RT. Following, cells were stained with 0.2% Wheat Germ Agglutinin (WGA)-Rhodamine (RL-1022, Vector Laboratories, Inc.) and 0.1% DAPI (62248, Thermo Fisher Scientific) for staining of plasma membrane and nuclei, respectively, according to manufacturer’s recommendations. […]

SW480 cancer cells = test: Cell cycle analysis by flow cytometry (propidium iodide); assay type: cell-based, human; settings: 24 h; 1a 12.5 to 50 nM; gemcitabine 10 nM

| SMILES | IC50 (SW480) [µM] | IC50 (CH1/PA-1) [µM] | TP53 immunofluorescence signal (TP53) | cell cycle distribution (SW480 cancer cells) |
| --- | --- | --- | --- | --- |
| N.N.[Cl][Pt][Cl] [cisplatin, reference compound] | 2.3 ± 0.2 | 0.073 ± 0.001 |  |  |
| O=C1C(O)=C(CN2CCOCC2)C(=O)c2ccccc21 [b, 3-morpholine naphthoquinone] | 160 ± 30 | > 200 |  |  |
| CCC1=C(O)C(=O)c2ccccc2C1=O [a] | 100 ± 10 | 173 ± 10 |  |  |
| COc1cc([C@@H]2c3cc4c(cc3[C@@H](O[C@@H]3O[C@@H]5CO[C@@H](C)O[C@H]5[C@H](O)[C@H]3O)[C@H]3COC(=O)[C@H]23)OCO4)cc(OC)c1O [etoposide, reference compound] |  |  | enhanced nuclear accumulation of TP53 |  |
| Nc1ccn([C@@H]2O[C@H](CO)[C@@H](O)C2(F)F)c(=O)n1 [gemcitabine, reference compound] |  |  |  | G0/G1 arrest |
